As a reminder, the inhibition is the share of the control response that was lost under treatment.

Inhibition and specificity data for 2 compounds are collected here from patent US20220106304A1, “Transcription Factor BRN2 Inhibitory Compounds as Therapeutics and Methods for Their Use” (The University of British Columbia, priority 2018, published 2022).

For experiment [1], the target named is T1, BRN2 (Homo sapiens, UniProt P20265).
T1 sequence (P20265 1-443): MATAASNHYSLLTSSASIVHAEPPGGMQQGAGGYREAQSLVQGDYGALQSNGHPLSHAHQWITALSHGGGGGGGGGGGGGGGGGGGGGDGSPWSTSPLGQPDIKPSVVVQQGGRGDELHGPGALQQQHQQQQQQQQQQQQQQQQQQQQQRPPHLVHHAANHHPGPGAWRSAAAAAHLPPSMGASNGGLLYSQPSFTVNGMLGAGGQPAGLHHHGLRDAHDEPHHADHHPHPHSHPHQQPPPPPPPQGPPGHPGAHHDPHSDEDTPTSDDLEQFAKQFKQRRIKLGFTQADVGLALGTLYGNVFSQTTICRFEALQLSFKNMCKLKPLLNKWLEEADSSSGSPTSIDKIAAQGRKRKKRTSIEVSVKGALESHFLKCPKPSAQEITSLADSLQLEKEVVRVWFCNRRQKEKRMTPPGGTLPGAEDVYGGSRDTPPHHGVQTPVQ
Kind of experiment: cell-based. The conditions noted are these: negative = activation; for inhibition at 10 µM: read-out: % BRN2 Inhibition (10 μM), 10 μM compound, 24 hours, 42D^ENZR cells stably expressing BRN2-luciferase reporter; for inhibition at 30 µM: read-out: % BRN2 Inhibition (30 μM), 30 μM compound, 24 hours, 42D^ENZR cells stably expressing BRN2-luciferase reporter.

For experiment [2], the system named is 42D^ENZR cells vs 16D^CRPC cells. Kind of experiment: Cell proliferation specificity, 42D^ENZR cells vs 16D^CRPC cells. The format is cell-based. Particulars: 42D cells express BRN2, 16D cells do not; some also LNCaP; result in words. The procedure:
Plate 42DENZR (˜7000 cells per well) and 16D^CRPC (˜5000 cells per well) cells in 96 well plate with a volume of 100 μL per well. • 2. Next day 1 mL aliquots of media are combined with 3× the desired concentration of compounds. The aliquots are vortexed and 50 μL of each 3× concentration is added to the 100 μL of media in each well to give the ix desired concentration.
The following are the desired concentrations:
0, 10 nM, 100 nM, 500 nM, 1 μM, 2.5 μM, 5 μM, 10 μM, 15 μM, […], 30 μM. • 3. Approximately 72 hours later, 17 μL of 10% Glutaraldehyde is added to each well and plates are placed on a shaker for 20-30 minutes. • 4. Media is washed off the fixed cells by slow submersion in a container of water. Then the water is removed by tapping the plate upside down. • 5. 75 μL of Crystal Violet™ solution is added into the 96 well plates and placed on a shaker for ˜30 minutes. • 6. Media is washed off the fixed cells by repeated slow submersion in a container of water and the plates are allowed to dry over-night. • 7. Next day, 75 μL of Sorensen Solution is accurately pipetted into each well. The plates placed on a shaker for ˜30 minutes. • 8. Absorbance is measured in the plate at 590 nm.
Compounds that Show Specificity Towards 42D^ENZR Cells Vs 16D^CRPC Cells Progress to Step 4.
Where data is not available “na” is inserted.

As to `FC(F)(F)c1ccc2cc(-c3csc(-c4ccco4)n3)oc2c1` [VPC-18-51, 2-(Furan-2-yl)-4-(6-(trifluoromethyl)benzofuran-2-yl)thiazole], in experiment [1], the inhibition at 10 µM is 62.5% and the inhibition at 30 µM was determined as 71.4%. Further, the specificity result in experiment [2] was “specific 42D not 16D”.

Regarding `Clc1cc2cc(-c3csc(-c4ccc[nH]4)n3)oc2cc1Cl` [VPC-18-142], in experiment [1], the inhibition at 10 µM amounted to 29.1% and the inhibition at 30 µM is 53.6%. Also, the specificity result in experiment [2] is “not 16D”.
